Source: patent US12187721B2, “Protein tyrosine phosphatase inhibitors” (Array BioPharma Inc., priority 2018, dated 2025)
Read-outs that look alike come from different tables or passages of the source.

Molecular target: T1, full-length SHP2 (His6-tagged SHP2(2-527)) (Homo sapiens, UniProt Q06124)
T1 construct: His6-tagged SHP2(2-527); His6; made in house; host or cells: E. coli
Assay: SHP2 Enzymatic Assay (fluorescence intensity kinetic assay, DiFMUP hydrolysis)
Assay type: biochemical
Experimental: A fluorescence intensity kinetic assay was configured for full-length SHP2 that monitors the amount of 6,8-difluoro-7-hydroxy-4-methylcoumarin (“DiFMU”) formed upon hydrolysis of 6,8-difluoro-4-methylumbelliferyl phosphate (“DiFMUP”) by SHP2. Assay mixtures consisted of 25 mM K^+HEPES, pH 7.4, 0.01% Triton X-100, 1 mM DTT, 50 mM KCl, 100 μg/mL bovine γ-globulin, 50 μM DiFMUP, 1 μM SHP2 activating peptide (LN(pY)IDLDLV(dPEG8)LST(pY)ASINFQK-amide), 1 nM full-length SHP2 (His6-tagged SHP2(2-527), recombinantly expressed in E. coli and purified in-house) and 2% dimethylsulfoxide (“DMSO”) (from compound). […] The assay was run in 384-well, polystyrene, low-volume, non-treated, black microtiter plates (Costar 4511) in a final volume of 20 μL. Low control wells lacked enzyme. The assays were initiated by the addition of a mixture of SHP2 and the activating peptide, and following a 15 second mix on an orbital shaker, were read in kinetic mode for 15 minutes (30 seconds/cycle) at ambient temperature on a PerkinElmer EnVision microplate reader (λEx=355 nm, λEm=460 nm). Initial velocities (slopes of the tangents at t=0) were estimated from exponential fits to the slightly nonlinear progress curves and then were converted to percent of control (“POC”) using the following equation:
[formula] • Where: Xmax Average Uninhibited Controls • Xmin Average Background A 4-parameter logistic model was the fit to the POC data for each compound. From that fit, the IC50 was estimated and is defined as the concentration of compound at which the curve crosses 50 POC.
The reported IC50 in Table 1 may be from a single assay or the mean of multiple assays.

[1] = full-length SHP2 with 1 μM activating peptide, 50 μM DiFMUP, single assay or mean of multiple assays, read-out: Biological Example 1 IC50

T1 sequence (Q06124 2-527): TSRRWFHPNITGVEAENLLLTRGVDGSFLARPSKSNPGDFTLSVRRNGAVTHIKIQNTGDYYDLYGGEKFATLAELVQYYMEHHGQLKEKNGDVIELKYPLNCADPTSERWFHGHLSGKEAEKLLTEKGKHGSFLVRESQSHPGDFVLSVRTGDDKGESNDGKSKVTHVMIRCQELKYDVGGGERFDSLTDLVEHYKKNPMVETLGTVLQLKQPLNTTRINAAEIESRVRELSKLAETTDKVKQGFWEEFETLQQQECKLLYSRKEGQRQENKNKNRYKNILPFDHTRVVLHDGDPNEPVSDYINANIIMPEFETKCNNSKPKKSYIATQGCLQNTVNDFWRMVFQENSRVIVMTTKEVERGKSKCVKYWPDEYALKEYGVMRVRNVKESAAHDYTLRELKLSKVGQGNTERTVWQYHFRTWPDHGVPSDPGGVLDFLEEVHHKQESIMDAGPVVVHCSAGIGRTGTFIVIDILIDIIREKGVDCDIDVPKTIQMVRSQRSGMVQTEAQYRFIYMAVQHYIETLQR

Structure (SMILES) | IC50 | IC50 [1]
Nc1nccc(Sc2ccc3nc(N4CC[C@@H](N)[C@@H](O)C4)cnc3n2)c1Cl [Example 84, (3S,4R)-4-amino-1-(6-((2-amino-3-chloropyridin-4-yl)thio)pyrido[2,3-b]pyrazin-2-yl)piperidin-3-ol] | 102 nM | –
CC1(N)CCN(c2cnc3nc(-c4cccc(Cl)c4)ccc3n2)CC1 [Example 3, 1-(6-(3-chlorophenyl)pyrido[2,3-b]pyrazin-2-yl)-4-methylpiperidin-4-amine] | 1800 nM | –
NC1(CO)CCN(c2cnc3nc(Sc4ccnc(N5CCCC5)c4Cl)ccc3n2)CC1 [Example 45, (4-amino-1-(6-((3-chloro-2-(pyrrolidin-1-yl)pyridin-4-yl)thio)pyrido[2,3-b]pyrazin-2-yl)piperidin-4-yl)methanol] | 92 nM | –
CC1(CN)CCN(c2cnc3cc(-c4cccc(Cl)c4Cl)ccc3n2)CC1 [Example 23, (1-(6-(2,3-dichlorophenyl)quinoxalin-2-yl)-4-methylpiperidin-4-yl)methanamine] | 2500 nM | –
Nc1nccc(Sc2ccc3nc(N4CCO[C@@H]5CNC[C@H]54)cnc3n2)c1Cl [Example 215, 3-chloro-4-((2-((4aR,7aR)-hexahydropyrrolo[3,4-b][1,4]oxazin-4(4aH)-yl)pyrido[2,3-b]pyrazin-6-yl)thio)235yridine-2-amine] | 780 nM | –
CCC1(N)CCN(c2cnc3nc(Sc4ccnc(N)c4Cl)ccc3n2)CC1 [Example 130, 4-((2-(4-amino-4-ethylpiperidin-1-yl)pyrido[2,3-b]pyrazin-6-yl)thio)-3-chloropyridin-2-amine] | 96 nM | –
NCC1(O)CCN(c2cnc3nc(Sc4ccnc(N)c4Cl)ccc3n2)CC1 [Example 42, 1-(6-((2-amino-3-chloropyridin-4-yl)thio)pyrido[2,3-b]pyrazin-2-yl)-4-(aminomethyl)piperidin-4-ol] | 95 nM | –
COCCNc1nccc(Sc2ccc3nc(N4CCC5(CC4)CO[C@@H](C)[C@H]5N)cnc3n2)c1Cl [Example 183, (3S,4S)-8-(6-((3-chloro-2-((2-methoxyethyl)amino)pyridin-4-yl)thio)pyrido[2,3-b]pyrazin-2-yl)-3-methyl-2-oxa-8-azaspiro[4.5]decan-4-amine] | 268 nM | –
Nc1nccc(Sc2ccc3nc(N4[C@@H]5CC[C@H]4[C@@H](N)C5)cnc3n2)c1Cl [Example 213, (1S,2S,4R)-7-(6-((2-amino-3-chloropyridin-4-yl)thio)pyrido[2,3-b]pyrazin-2-yl)-7-azabicyclo[2.2.1]heptan-2-amine] | 112 nM | –
CNc1nccc(Sc2ccc3nc(N4CCC[C@](C)(N)CC4)cnc3n2)c1Cl (single isomer, unassigned) [Example 149] | 98 nM | –
CC1(N)CCN(c2cnc3nc(Sc4cccc5ccncc45)ccc3n2)CC1 [Example 48, 1-(6-(isoquinolin-8-ylthio)pyrido[2,3-b]pyrazin-2-yl)-4-methylpiperidin-4-amine] | 460 nM | –
Cc1ccc2c(c1)[C@H](N)C1(CCN(c3cnc4nc(Sc5ccnc(N)c5Cl)ccc4n3)CC1)C2 [Example 179, (R)-1′-(6-((2-amino-3-chloropyridin-4-yl)thio)pyrido[2,3-b]pyrazin-2-yl)-6-methyl-1,3-dihydrospiro[indene-2,4′-piperidin]-1-amine] | 80 nM | –
Nc1nccc(Sc2ccc3nc(N4CC5(Cc6ccccc6[C@H]5N)C4)cnc3n2)c1Cl [Example 124, (R)-1-(6-((2-amino-3-chloropyridin-4-yl)thio)pyrido[2,3-b]pyrazin-2-yl)-1′,3′-dihydrospiro[azetidine-3,2′-inden]-1′-amine] | 52 nM | –
Nc1nccc(Sc2ccc3nc(N4CCC5(CC4)C[C@@H](O)C[C@H]5N)cnc3n2)c1Cl [Example 160, (2R,4R)-4-amino-8-(6-((2-amino-3-chloropyridin-4-yl)thio)pyrido[2,3-b]pyrazin-2-yl)-8-azaspiro[4.5]decan-2-ol] | – | 60 nM
C[Si]1(CN)CCN(c2cnc3nc(Sc4ccnc(N)c4Cl)ccc3n2)CC1 [Example 109, 4-((2-(4-(Aminomethyl)-4-methyl-1,4-azasilinan-1-yl)pyrido[2,3-b]pyrazin-6-yl)thio)-3-chloropyridin-2-amine] | 27 nM | –
Cc1c[nH]c2nccc(Sc3ccc4nc(N5CCC6(CC5)CO[C@@H](C)[C@H]6N)cnc4n3)c12 [Example 139, (3S,4S)-3-methyl-8-(6-((3-methyl-1H-pyrrolo[2,3-b]pyridin-4-yl)thio)pyrido[2,3-b]pyrazin-2-yl)-2-oxa-8-azaspiro[4.5]decan-4-amine] | 93 nM | –
N[C@@H]1c2cccnc2CC12CCN(c1cnc3nc(Sc4ccnc(N5CCC(O)CC5)c4Cl)ccc3n1)CC2 [Example 209, (S)-1-(4-((2-(5-amino-5,7-dihydrospiro[cyclopenta[b]pyridine-6,4′-piperidin]-1′-yl)pyrido[2,3-b]pyrazin-6-yl)thio)-3-chloropyridin-2-yl)piperidin-4-ol] | 40 nM | –
CC1(N)CCN(c2cnc3nc(Sc4cccnc4N)ccc3n2)CC1 [Example 95, 3-((2-(4-amino-4-methylpiperidin-1-yl)pyrido[2,3-b]pyrazin-6-yl)thio)pyridin-2-amine] | 4720 nM | –
N[C@@H]1c2ccccc2CC12CCN(c1cnc3nc(Oc4ccc(F)cc4)ccc3n1)CC2 [Example 123, (S)-1′-(6-(4-fluorophenoxy)pyrido[2,3-b]pyrazin-2-yl)-1,3-dihydrospiro[indene-2,4′-piperidin]-1-amine] | 21 nM | –
C[C@@H]1OCC2(CCN(c3cnc4nc(Sc5ccnc6c5CCC6O)ccc4n3)CC2)[C@@H]1N (stereo partly drawn) [Example 157, 4-((2-((3S,4S)-4-amino-3-methyl-2-oxa-8-azaspiro[4.5]decan-8-yl)pyrido[2,3-b]pyrazin-6-yl)thio)-6,7-dihydro-5H-cyclopenta[b]pyridin-7-ol] | 282 nM | –
Nc1nccc(Sc2ccc3nc(N4CCC5(CC4)Cc4cc(F)ccc4[C@H]5N)cnc3n2)c1Cl [Example 145, (S)-1′-(6-((2-amino-3-chloropyridin-4-yl)thio)pyrido[2,3-b]pyrazin-2-yl)-5-fluoro-1,3-dihydrospiro[indene-2,4′-piperidin]-1-amine] | – | 27 nM
Nc1nccc(Sc2ccc3nc(N4CC5COCC(C4)N5)cnc3n2)c1Cl [Example 207, 4-((2-(3-oxa-7,9-diazabicyclo[3.3.1]nonan-7-yl)pyrido[2,3-b]pyrazin-6-yl)thio)-3-chloropyridin-2-amine] | 730 nM | –
CC1(N)CCN(c2cnc3nc(Oc4cccc(Cl)c4Cl)ccc3n2)CC1 [Example 15, 1-(6-(2,3-dichlorophenoxy)pyrido[2,3-b]pyrazin-2-yl)-4-methylpiperidin-4-amine] | – | 340 nM
C[C@@H]1OCC2(CCN(c3cnc4nc(-c5cccc(Cl)c5Cl)ccc4n3)CC2)[C@@H]1N [Example 39, (3S,4S)-8-(6-(2,3-dichlorophenyl)pyrido[2,3-b]pyrazin-2-yl)-3-methyl-2-oxa-8-azaspiro[4.5]decan-4-amine] | 320 nM | –
CC1(N)CCN(c2cnc3nc(Sc4ccc(N)nc4Cl)ccc3n2)CC1 [Example 97, 5-((2-(4-amino-4-methylpiperidin-1-yl)pyrido[2,3-b]pyrazin-6-yl)thio)-6-chloropyridin-2-amine] | 176 nM | –
CNc1nccc(Sc2ccc3nc(N4CCC[C@@](C)(N)CC4)cnc3n2)c1Cl (single isomer, unassigned) [Example 148] | 93 nM | –
Nc1nccc(Sc2ccc3nc(N4C5CNCC4C5)cnc3n2)c1Cl [Example 205] | 114 nM | –
